Here are results for four molecules from ChEMBL document CHEMBL5505979, “Novel aminothiazoximone-corbelled ethoxycarbonylpyrimidones with antibiofilm activity to conquer Gram-negative bacteria through potential multitargeting effects” (Eur J Med Chem, 2024).

What all share (type): functional
Assay [1] has as its system Staphylococcus aureus. The assay is described as follows: Anti-bacterial activity against methicillin-resistant Staphylococcus aureus N315 assessed as inhibition of bacterial growth.
In assay [2] the test system is Staphylococcus aureus. The experiment in a line: Anti-bacterial activity against methicillin-resistant Staphylococcus aureus ATCC 43300 assessed as inhibition of bacterial growth.
A further assay has as its system Enterococcus faecalis. The experiment in a line: Anti-bacterial activity against Enterococcus faecalis V583 assessed as inhibition of bacterial growth.
Another assay concerns Klebsiella pneumoniae. The assay is described as follows: Anti-bacterial activity against Klebsiella pneumoniae KPN325 assessed as inhibition of bacterial growth.
Assay [3] has as its system Staphylococcus aureus. The assay is described as follows: Anti-bacterial activity against Staphylococcus aureus ATCC 1708 assessed as inhibition of bacterial growth.
Assay [4] relates to Staphylococcus aureus. The assay is described as follows: Anti-bacterial activity against Staphylococcus aureus ATCC 25923 assessed as inhibition of bacterial growth.
For assay [5], the system named is Staphylococcus aureus. The experiment in a line: Anti-bacterial activity against Staphylococcus aureus ATCC 29213 assessed as inhibition of bacterial growth.
The subject of assay [6] is Staphylococcus aureus. The experiment in a line: Anti-bacterial activity against Staphylococcus aureus ATCC 12600 assessed as inhibition of bacterial growth.
For assay [7], the system named is Staphylococcus aureus. The experiment in a line: Anti-bacterial activity against Staphylococcus aureus ATCC 6538 assessed as inhibition of bacterial growth.
Assay [8] deals with Staphylococcus aureus. The experiment in a line: Anti-bacterial activity against Staphylococcus aureus CMCC (B) 26003 assessed as inhibition of bacterial growth.
Assay [9] has as its system Staphylococcus aureus. The experiment in a line: Anti-bacterial activity against Staphylococcus aureus CMCC (B) 26001 assessed as inhibition of bacterial growth.
Assay [10] relates to Escherichia coli. The experiment in a line: Anti-bacterial activity against Escherichia coli JM109 assessed as inhibition of bacterial growth.
For assay [11], the system named is Escherichia coli. The assay is described as follows: Anti-bacterial activity against Escherichia coli ATCC 25922 assessed as inhibition of bacterial growth.
Assay [12] has as its system Pseudomonas aeruginosa. The experiment in a line: Anti-bacterial activity against Pseudomonas aeruginosa ST235 assessed as inhibition of bacterial growth.
The subject of assay [13] is Pseudomonas aeruginosa. The experiment in a line: Anti-bacterial activity against Pseudomonas aeruginosa ATCC 27853 assessed as inhibition of bacterial growth.
Assay [14] has as its system Pseudomonas aeruginosa. The assay is described as follows: Anti-bacterial activity against Pseudomonas aeruginosa ATCC 15442 assessed as inhibition of bacterial growth.
Assay [15] has as its system Pseudomonas aeruginosa. The experiment in a line: Anti-bacterial activity against Pseudomonas aeruginosa ATCC 9027 assessed as inhibition of bacterial growth.
The test system of assay [16] is Pseudomonas aeruginosa. The experiment in a line: Anti-bacterial activity against Pseudomonas aeruginosa CMCC (B) 10104 assessed as inhibition of bacterial growth.
The next assay deals with Acinetobacter baumannii. The assay is described as follows: Anti-bacterial activity against Acinetobacter baumannii R674 assessed as inhibition of bacterial growth.
The subject of assay [17] is Candida albicans. The experiment in a line: Anti-fungal activity against Candida albicans assessed as inhibition of fungal growth.
Assay [18] deals with Candida albicans. The assay is described as follows: Anti-fungal activity against Candida albicans 90023 assessed as inhibition of fungal growth.
A further assay concerns Candida tropicalis. The experiment in a line: Anti-fungal activity against Candida tropicalis assessed as inhibition of fungal growth.
For another assay, the system named is Candida parapsilosis. The experiment in a line: Anti-fungal activity against Candida parapsilosis assessed as inhibition of fungal growth.
The mark [19] stands for this setting: Klebsiella pneumoniae, KPN325, read-out: MIC.
The mark [20] stands for this setting: Staphylococcus aureus, ATCC 1708, read-out: MIC.
Setting [21] is: Staphylococcus aureus, ATCC 25923, read-out: MIC.
Setting [22] is: Staphylococcus aureus, ATCC 29213, read-out: MIC.
Where [23] appears, read: Staphylococcus aureus, ATCC 12600, read-out: MIC.
Setting [24] is: Pseudomonas aeruginosa, ST235, read-out: MIC.
[25] abbreviates: Pseudomonas aeruginosa, ATCC 27853, read-out: MIC.
Setting [26] is: Pseudomonas aeruginosa, ATCC 15442, read-out: MIC.
Setting [27] is: Pseudomonas aeruginosa, CMCC (B) 10104, read-out: MIC.
The mark [28] stands for this setting: Candida albicans, read-out: MIC.
Where [29] appears, read: Candida tropicalis, read-out: MIC.
The mark [30] stands for this setting: Lodderomyces parapsilosis, read-out: MIC.

Converted amounts (≈) assume the structure as drawn. “And” between values parts separate entries of the source, which are not always exact repeats. Identical values can stand only once.

For `CCOC(=O)C1=C(CN2CCN(C(=O)/C(=N/OC)c3csc(N)n3)CC2)NC(=O)NC1c1ccc(OC)c(OC)c1OC` (stereo unspecified), the MIC (in general, the smallest concentration in the dilution series that meets the test's criterion for growth inhibition) stood at 415 µM (≈ 256 µg/mL) with Staphylococcus aureus [1] (Staphylococcus aureus, N315, read-out: MIC); 208 µM (≈ 128 µg/mL) in the assay on Staphylococcus aureus [2] (Staphylococcus aureus, ATCC 43300, read-out: MIC); 208 µM (≈ 128 µg/mL) in the assay on Enterococcus faecalis; 26 µM (≈ 16.1 µg/mL) in the assay with Klebsiella pneumoniae (setting [19]); 208 µM (≈ 128 µg/mL) with Staphylococcus aureus [3] (setting [20]); 208 µM (≈ 128 µg/mL) in the assay on Staphylococcus aureus [4] (setting [21]). The MIC in the assay on Staphylococcus aureus [5] (setting [22]) turned out to be 208 µM (≈ 128 µg/mL); with Staphylococcus aureus [6] (setting [23]) it was 415 µM (≈ 256 µg/mL); in the assay with Staphylococcus aureus [7], 104 µM (≈ 64.2 µg/mL); with Staphylococcus aureus [8] it was 208 µM (≈ 128 µg/mL); in the assay with Staphylococcus aureus [9], 415 µM (≈ 256 µg/mL); in the assay with Escherichia coli [10] it was 104 µM (≈ 64.2 µg/mL). Besides, the minimal inhibitory concentration (MIC) is 52 µM (≈ 32.1 µg/mL) in the assay on Escherichia coli [11]; 52 µM (≈ 32.1 µg/mL) in the assay on Pseudomonas aeruginosa [12] (setting [24]); 52 µM (≈ 32.1 µg/mL) in the assay with Pseudomonas aeruginosa [13] (setting [25]); 104 µM (≈ 64.2 µg/mL) in the assay on Pseudomonas aeruginosa [14] (setting [26]); 104 µM (≈ 64.2 µg/mL) in the assay on Pseudomonas aeruginosa [15]; 104 µM (≈ 64.2 µg/mL) in the assay with Pseudomonas aeruginosa [16] (setting [27]). Also, the MIC stood at 104 µM (≈ 64.2 µg/mL) in the assay with Acinetobacter baumannii; 398 µM (≈ 246 µg/mL) in the assay with Candida albicans [17] (setting [28]); 398 µM (≈ 246 µg/mL) in the assay on Candida albicans [18]; 398 µM (≈ 246 µg/mL) in the assay on Candida tropicalis (setting [29]); 398 µM (≈ 246 µg/mL) in the assay with Candida parapsilosis (setting [30]).
As for `CCOC(=O)C1=C(CN2CCN(C(=O)/C(=N/OC)c3csc(N)n3)CC2)NC(=O)NC1c1ccc(C#N)cc1` (stereo unspecified), the MIC with Enterococcus faecalis came to 29 µM (≈ 16 µg/mL); in the assay on Klebsiella pneumoniae (setting [19]), 116 µM (≈ 64.1 µg/mL); in the assay on Staphylococcus aureus [3] (setting [20]) it was 58 µM (≈ 32.1 µg/mL); with Staphylococcus aureus [4] (setting [21]), 58 µM (≈ 32.1 µg/mL); in the assay on Staphylococcus aureus [5] (setting [22]) it was 58 µM (≈ 32.1 µg/mL); in the assay with Staphylococcus aureus [6] (setting [23]), 58 µM (≈ 32.1 µg/mL). The minimum inhibitory concentration (MIC) in the assay on Staphylococcus aureus [7] was determined as 58 µM (≈ 32.1 µg/mL); in the assay on Staphylococcus aureus [9] it was 232 µM (≈ 128 µg/mL); in the assay with Escherichia coli [10], 29 µM (≈ 16 µg/mL); in the assay with Escherichia coli [11], 29 µM (≈ 16 µg/mL); in the assay with Pseudomonas aeruginosa [12] (setting [24]), 58 µM (≈ 32.1 µg/mL); with Pseudomonas aeruginosa [13] (setting [25]), 58 µM (≈ 32.1 µg/mL). Further, the MIC worked out at 58 µM (≈ 32.1 µg/mL) with Pseudomonas aeruginosa [14] (setting [26]); 58 µM (≈ 32.1 µg/mL) with Pseudomonas aeruginosa [15]; 58 µM (≈ 32.1 µg/mL) with Pseudomonas aeruginosa [16] (setting [27]); 29 µM (≈ 16 µg/mL) with Acinetobacter baumannii; 460 µM (≈ 254 µg/mL) in the assay with Candida albicans [17] (setting [28]); 115 µM (≈ 63.6 µg/mL) with Candida albicans [18]. Also, the minimum inhibitory concentration (MIC) in the assay on Candida tropicalis (setting [29]) and with Candida parapsilosis (setting [30]) was 460 µM (≈ 254 µg/mL) throughout.
Turning to `OC(Cn1cncn1)(Cn1cncn1)c1ccc(F)cc1F` [FLUCONAZOLE], the MIC in the assay with Candida albicans [17] (setting [28]) stood at 13 µM (≈ 3.98 µg/mL); with Candida albicans [18] it was 7 µM (≈ 2.14 µg/mL); with Candida tropicalis (setting [29]), 26 µM (≈ 7.96 µg/mL); in the assay with Candida parapsilosis (setting [30]) it was 13 µM (≈ 3.98 µg/mL).
For `CCCCc1nc(Cl)c(C2NC(=O)NC(CN3CCN(CC(O)c4nccs4)CC3)=C2C(=O)OCC)[nH]1` (stereo unspecified), the MIC is 199 µM and 466 µM in the assay on Staphylococcus aureus [1]; 50 µM and 116 µM in the assay with Staphylococcus aureus [2]; 233 µM (≈ 129 µg/mL) in the assay on Klebsiella pneumoniae; 199 µM (≈ 110 µg/mL) in the assay with Klebsiella pneumoniae (setting [19]); 99 µM and 233 µM in the assay on Staphylococcus aureus [3]; 58 µM (≈ 32 µg/mL) in the assay with Staphylococcus aureus [4]. For the same molecule, the minimum inhibitory concentration (MIC) was found to be 50 µM (≈ 27.6 µg/mL) in the assay with Staphylococcus aureus [4] (setting [21]); 58 µM (≈ 32 µg/mL) in the assay with Staphylococcus aureus [5]; 50 µM (≈ 27.6 µg/mL) with Staphylococcus aureus [5] (setting [22]); 58 µM (≈ 32 µg/mL) in the assay with Staphylococcus aureus [6]; 50 µM (≈ 27.6 µg/mL) with Staphylococcus aureus [6] (setting [23]); 99 µM (≈ 54.7 µg/mL) with Staphylococcus aureus [7]. For the same molecule, the minimum inhibitory concentration (MIC) with Staphylococcus aureus [8] is 199 µM (≈ 110 µg/mL); with Pseudomonas aeruginosa [12], 116 µM (≈ 64 µg/mL); with Pseudomonas aeruginosa [12] (setting [24]), 199 µM (≈ 110 µg/mL); in the assay on Pseudomonas aeruginosa [13], 50 µM and 116 µM; with Pseudomonas aeruginosa [14], 50 µM and 116 µM; with Pseudomonas aeruginosa [16], 116 µM (≈ 64 µg/mL). For the same molecule, the MIC is 199 µM (≈ 110 µg/mL) in the assay with Pseudomonas aeruginosa [16] (setting [27]); 466 µM (≈ 257 µg/mL) with Candida albicans [17]; 455 µM (≈ 251 µg/mL) in the assay with Candida albicans [17] (setting [28]); 227 µM and 466 µM in the assay on Candida tropicalis; 466 µM (≈ 257 µg/mL) in the assay on Candida parapsilosis; 455 µM (≈ 251 µg/mL) with Candida parapsilosis (setting [30]).
